One substance from patent US20060211606A1, “Peptides” (priority 2005, published 2006) can be followed below.

Where no end group is shown, it is not given here. [ ]: non-standard residue; d: D form.

In the experiment the test system is Human Skeletal Muscle Myoblasts (HSMM). The experiment is described as follows: HSMM proliferation, BrdU incorporation. Type of experiment: cell-based. The following applies: 48 hours. How it is done: (A) Peptide A5: HSMM cells at 500 cells/well. Cultivation was carried out for 24 hours in 10% FCS, followed by two washes in serum free medium, stimulation for 48 hours and then treatment with BrdU for 5 hours. Concentrations of 0.1, 1, 10, 100 and 500 ng/ml of peptide A5 were tested, along with 0.1, 1, 10 and 100 ng/ml IGF-I. BrdU incorporation was measured to assess the level of cell proliferation achieved. Controls containing medium only, no cells (BLK), background staining (BG) and 10% FBS were also provided. Values on the Y-axis are for fluorescence (absorbence at 370 nm; mean plus standard error across 4 wells). The first five columns relate to peptide A5 at concentrations of 0.1, 1, 10, 100 and 500 ng/ml. The next column relates to the control containing medium only. The next three relate to IGF-I (See Example 1.5) alone at concentrations of 100, 10 and 0.1 ng/ml. The next three relate to controls containing 10% FBS, background staining and no cells respectively. * means P<0.05 compared to medium only control.
(B) Peptide AS: HSMM cells at 500 cells/well. […] Concentrations of 0.1, 1, 10, 100 and 500 ng/ml of peptide AS in combination with 2 ng/ml IGF-I were tested, along with 0.1, 1, 10 and 100 ng/ml IGF-I. BrdU incorporation was measured to assess the level of cell proliferation achieved. […] Values on the Y-axis are for fluorescence (absorbence at 370 nm; mean plus standard error across 4 wells). […]
(A) Peptide AS: HSMM cells at 500 cells/well. […] Concentrations of 0.1, 1, 10, 100 and 500 ng/ml of peptide AS were tested, along with 0.1, 1, 10 and 100 ng/ml IGF-I. BrdU incorporation was measured to assess the level of cell proliferation achieved. […] Values on the Y-axis are for fluorescence (absorbence at 370 nm; mean plus standard error across 4 wells). […]
(B) Peptide A5: HSMM cells at 500 cells/well. […] Concentrations of 0.1, 1, 10, 100 and 500 ng/ml of peptide AS in combination with 2 ng/ml IGF-I were tested, along with 0.1, 1, 10 and 100 ng/ml IGF-I. BrdU incorporation was measured to assess the level of cell proliferation achieved. […]
On the technique in general: Incorporation of labelled thymidine or its analogues reports DNA synthesis.

As for “A5: SEQ ID NO: 15 with D-Arginine at positions 14 and 15, amidated at the C-terminus, not pegylated (YQPPSTNKNTKSQ[dR][dR]KGSTFEEHK-NH2; N-terminus assumed; SMILES C[C@@H](O)[C@H](NC(=O)[C@H](CO)NC(=O)CNC(=O)[C@H](CCCCN)NC(=O)[C@@H](CCCNC(=N)N)NC(=O)[C@@H](CCCNC(=N)N)NC(=O)[C@H](CCC(N)=O)NC(=O)[C@H](CO)NC(=O)[C@H](CCCCN)NC(=O)[C@@H](NC(=O)[C@H](CC(N)=O)NC(=O)[C@H](CCCCN)NC(=O)[C@H](CC(N)=O)NC(=O)[C@@H](NC(=O)[C@H](CO)NC(=O)[C@@H]1CCCN1C(=O)[C@@H]1CCCN1C(=O)[C@H](CCC(N)=O)NC(=O)[C@@H](N)Cc1ccc(O)cc1)[C@@H](C)O)[C@@H](C)O)C(=O)N[C@@H](Cc1ccccc1)C(=O)N[C@@H](CCC(=O)O)C(=O)N[C@@H](CCC(=O)O)C(=O)N[C@@H](Cc1c[nH]cn1)C(=O)N[C@@H](CCCCN)C(N)=O) [Peptide A5]”, where the note is “A5 in combination with 2 ng/ml IGF-I, P<0.001”, the “proliferation of HSMM (BrdU incorporation), with 2 ng/ml IGF-I in the medium” value is recorded as “significant effect on the proliferation of HSMM at a higher confidence level”. The “proliferation of HSMM (BrdU incorporation), used in isolation” value (A5 significant (P<0.1) at doses of 10 ng/ml and below, IGF-I alone 0.1, 10 and 100 ng/ml) is recorded as “significant effect”.
